Assay results from US20070264646A1, “Hbv Particles Containing Hbv-Rna” (Advanced Life Science Institute, Inc., priority 2003, published 2007).

How the values were obtained:
HBc antigen = assay: Measurement of the amount of HBc antigen (sandwich immunoassay, luminescence); type: in vivo, HBV patient; details: serum, before administration 610
Description: Three monoclonal antibodies HB44 (recognition site: amino acids 31-49), HB61 (recognition site: amino acids 131-140) and HB114 (recognition site: amino acids 1-81) that react both HBc antigen and HBe antigen were coated and immobilized to a microtiter plate. After washing with PBS, it was blocked with a solution containing casein and, after removing the solution, it was dried.
Fifty μl of the pretreatment solution (15% sodium dodecyl sulfate [SDS], 3% CHAPS, 1% hexadecyltrimethyl ammonium bromide) was mixed with 100 μl of the sample (serum, plasma etc.) and treated at 70° C. for 30 minutes.
To each antibody-immobilized well, 100 μl of the reaction buffer (pH 8.0) and 50 μl of the pretreated sample were added, and the plate was reacted under gentle stirring at room temperature for 2 hours.
After washing the wells, 100 μl of a solution containing alkaline phosphatase-labelled HB50 (recognition site: amino acids 168-176) monoclonal antibody was added to each well, and the plate was incubated at room temperature for 1 hour.
After washing the wells, 100 μl of the CDP Star with Emerald II (Applied Biosystems) was added, and the intensity of luminescence after reacting at room temperature for 20 minutes was measured using a microtiter plate luminometer. It was compared to the intensity of luminescence of the standard antigen and the concentration of HBc antigen in the sample was calculated (Table 1).

HBV-RNA in the serum = assay: Amount of HBV-RNA in the serum, estimated by subtracting HBV-DNA from HBV gene; type: in vivo, HBV patient; details: one month before administration 5.4 × 10^6
Experimental: In order to measure the amount of HBV gene in the serum, the step of the reverse transcriptase reaction was added. To 10 μl of the HBV gene solution, 1 μl of 20 mM dNTP Mix (10 mM dATP, 10 mM dGTP, 10 mM dCTP, 10 mM dTTP) and 0.2 μl of 10 μM HBS-R primer were mixed, and after incubated at 65° C. for 5 minutes, it was quickly cooled on ice. Four μl of 5× reverse transcription buffer [250 mM Tris-HCl (pH 8.3), 375 mM KCl, 15 mM MgCl2], 0.2 μl of 0.1 M DTT, 0.6 μl of RNase inhibitor (40 units/μl) and 3 μl of sterile water were mixed and then subjected to an annealing reaction at 42° C. for 2 minutes, to which 1 μl of the reverse transcriptase (200 units/μl) was added to prepare a 20 μl of a reaction mixture, which was subjected to a reverse transcription reaction at 42° C. for 50 minutes and the inactivation of the reverse transcriptase was performed at 70° C. for 15 minutes.
By applying 4 μl of this reaction mixture to the above HBV-DNA quantification system, the amount of the HBV gene in the serum, i.e. the total amount of HBV-DNA and RNA in the serum, can be measured. Also, by subtracting the amount of HBV-DNA from the amount of the HBV gene, the amount of HBV-RNA in the serum can be estimated (Table 1).

[1] = test system: HBV gene (HBV-DNA and RNA) in the serum; assay: Quantification of the HBV gene (DNA+RNA) in the serum by reverse transcription plus TaqMan PCR; type: in vivo, HBV patient; details: one month before administration 7.8 × 10^6
Experimental: (§1) In order to isolate the HBV gene in Dane particles (the infective HBV particle: the complete HBV particle), the HBV gene in a serum from a HBV patient was purified using High Pure Viral Nucleic Acid kit (Roche Diagnostics) in the following method. One hundred μl of the serum from a HBV patient who received lamivudine treatment was mixed with 100 μl of the serum from a normal healthy subject to prepare 200 μl of a serum sample. To the serum sample, 200 μl of a working solution {50 μl of poly(A) carrier RNA (4 mg/ml) and 2.5 ml of the binding buffer [6 M guanidine-HCl, 10 mM urea, 10 mM Tris-HCl (pH 4.4), 20% Triton X-100 (v/v)]} and 50 μl of Proteinase K (18 mg/ml) were added and mixed, and incubated at 72° C. for 10 minutes.
(§2) One hundred μl of isopropanol and the sample were mixed, and the mixture was transferred into a High Pure filter tube. It was centrifuged at 8000 rpm for 1 minute, and after discarding the flowthrough, 500 μl of the inhibitor removal buffer [5 M guanidine-HCl, 20 mM Tris-HCl (pH 6.6)] was injected and then centrifuged at 8000 rpm for 1 minute. After adding 450 μl of the washing buffer [20 mM NaCl, 2 mM Tris-HCl (pH 7.5)], it was centrifuged at 8000 rpm for 1 minute. Then it was washed again in 450 μl of the washing buffer and was centrifuged at 13000 rpm for 10 seconds. Fifty μl of sterile water was added to the filter tube, which was centrifuged at 8000 rpm for 1 minute, and the flowthrough was collected to prepare a solution of the HBV gene in the serum.
In order to measure the amount of HBV gene in the serum, the step of the reverse transcriptase reaction was added. To 10 μl of the HBV gene solution, 1 μl of 20 mM dNTP Mix (10 mM dATP, 10 mM dGTP, 10 mM dCTP, 10 mM dTTP) and 0.2 μl of 10 μM HBS-R primer were mixed, and after incubated at 65° C. for 5 minutes, it was quickly cooled on ice. […]
By applying 4 μl of this reaction mixture to the above HBV-DNA quantification system, the amount of the HBV gene in the serum, i.e. the total amount of HBV-DNA and RNA in the serum, can be measured. […]

HBV-DNA in the serum = assay: Quantification of HBV-DNA in the serum by TaqMan PCR, patient under lamivudine treatment; type: in vivo; details: one month before administration 2.4 × 10^6
Experimental: as §1, §2
The quantification of HBV-DNA in the serum was performed by the TaqMan PCR method that employs the Light Cycler (Roche Diagnostics). […]
The condition included pretreatment at 95° C. for 10 minutes, DNA denaturation at 95° C. for 5 seconds, annealing at 60° C. for 15 seconds and DNA synthesis at 72° C. for 8 seconds, and fluorescence emitted from the TaqMan probe was measured to quantify the amount of HBV-DNA in the serum (Table 1).

Compound: Nc1ccn([C@@H]2CS[C@H](CO)O2)c(=O)n1 [lamivudine]
- Amount of HBc antigen (HBc antigen; 8 months after administration): 21 pg/mL
- Amount of HBc antigen (HBc antigen; 19 months after administration): 20 pg/mL
- Amount of HBc antigen (HBc antigen; one month after administration): 56 pg/mL
- Amount of HBV-RNA (HBV-RNA in the serum; 8 months after administration): 7.1 × 10^3 copies/ml
- Amount of HBV-RNA (HBV-RNA in the serum; 19 months after administration): 2.2 × 10^3 copies/ml
- Amount of HBV-RNA (HBV-RNA in the serum; one month after administration): 1.0×10^5 copies/ml
- Amount of HBV gene ([1]; 8 months after administration): 7.2 × 10^3 copies/ml
- Amount of HBV gene ([1]; 19 months after administration): 2.2 × 10^3 copies/ml
- Amount of HBV gene ([1]; one month after administration): 1.1 × 10^5 copies/ml
- Amount of HBV-DNA (HBV-DNA in the serum; 8 months after administration): 1.0 × 10^2 copies/ml
- Amount of HBV-DNA (HBV-DNA in the serum; 19 months after administration): 0 copies/ml
- Amount of HBV-DNA (HBV-DNA in the serum; one month after administration of lamivudine): 6.1×10^3 copies/ml
